Counter-ions that a name gives are not always drawn.

Sequence of S. aureus GyrB ATPase (P0AES4 whole entry): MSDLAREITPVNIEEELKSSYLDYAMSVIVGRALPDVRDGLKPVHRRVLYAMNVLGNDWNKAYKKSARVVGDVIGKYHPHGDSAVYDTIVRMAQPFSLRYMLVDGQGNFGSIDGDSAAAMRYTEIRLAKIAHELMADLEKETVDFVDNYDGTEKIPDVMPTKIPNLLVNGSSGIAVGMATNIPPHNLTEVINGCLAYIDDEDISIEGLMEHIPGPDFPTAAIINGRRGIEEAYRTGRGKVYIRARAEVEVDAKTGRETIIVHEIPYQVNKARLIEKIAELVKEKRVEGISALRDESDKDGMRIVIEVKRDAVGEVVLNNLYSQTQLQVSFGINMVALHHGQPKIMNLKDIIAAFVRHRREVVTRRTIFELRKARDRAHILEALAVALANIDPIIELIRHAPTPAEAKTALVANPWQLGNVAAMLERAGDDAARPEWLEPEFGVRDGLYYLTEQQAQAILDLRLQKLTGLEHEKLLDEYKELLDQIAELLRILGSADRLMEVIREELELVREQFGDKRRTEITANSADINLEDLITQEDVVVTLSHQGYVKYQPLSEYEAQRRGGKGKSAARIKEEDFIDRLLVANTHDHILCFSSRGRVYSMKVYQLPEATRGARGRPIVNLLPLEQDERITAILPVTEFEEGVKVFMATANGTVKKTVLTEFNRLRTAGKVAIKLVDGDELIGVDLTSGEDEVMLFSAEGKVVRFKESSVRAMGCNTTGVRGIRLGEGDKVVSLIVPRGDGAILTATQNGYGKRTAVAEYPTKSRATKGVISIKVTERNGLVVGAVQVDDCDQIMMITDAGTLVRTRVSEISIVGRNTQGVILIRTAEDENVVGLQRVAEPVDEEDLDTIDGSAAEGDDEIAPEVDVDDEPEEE
Sequence of S. aureus GyrB ATPase (P0A0K8 whole entry): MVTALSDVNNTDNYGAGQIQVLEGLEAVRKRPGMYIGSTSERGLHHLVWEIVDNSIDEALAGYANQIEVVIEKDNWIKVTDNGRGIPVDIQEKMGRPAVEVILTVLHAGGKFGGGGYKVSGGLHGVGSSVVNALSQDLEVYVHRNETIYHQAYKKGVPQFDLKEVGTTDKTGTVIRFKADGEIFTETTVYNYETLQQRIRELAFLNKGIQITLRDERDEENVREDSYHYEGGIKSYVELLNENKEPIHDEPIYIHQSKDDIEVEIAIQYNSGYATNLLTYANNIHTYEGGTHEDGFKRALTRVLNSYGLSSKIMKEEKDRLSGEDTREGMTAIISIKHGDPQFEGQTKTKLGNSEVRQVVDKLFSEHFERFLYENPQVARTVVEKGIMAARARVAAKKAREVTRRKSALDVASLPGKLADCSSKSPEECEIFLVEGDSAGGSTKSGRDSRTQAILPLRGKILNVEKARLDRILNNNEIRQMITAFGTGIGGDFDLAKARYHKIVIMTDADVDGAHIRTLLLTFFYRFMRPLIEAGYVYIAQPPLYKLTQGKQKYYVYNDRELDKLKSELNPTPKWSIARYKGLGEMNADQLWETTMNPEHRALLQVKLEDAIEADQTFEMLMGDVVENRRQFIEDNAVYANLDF

The experiment addresses S. aureus GyrB ATPase (Staphylococcus aureus, UniProt P0A0K8). The experiment in a line: S. aureus GyrB ATPase inhibition (ammonium molybdate/malachite green phosphate detection). It counts as biochemical. Particulars: compound at 1 μM; inhibition of S. aureus GyrB ATPase; read-out: Percent Inhibition (1 μM). The protocol: S. aureus GyrB ATPase Inhibition Activity: Compounds may be tested for inhibition of S. aureus GyrB ATPase activity using an ammonium molybdate/malachite green-based phosphate detection assay (Lanzetta, P. A., L. J. Alvarez, P. S. Reinach, and O. A. Candia, 1979, 100: 95-97). Assays can be performed in multiwell plates in 30 μl reactions containing: 50 mM Hepes buffer pH 7.5, 75 mM ammonium acetate, 8.0 mM magnesium chloride, 0.5 mM ethylenediaminetetraacetic acid, 5% glycerol, 1.0 mM 1,4-Dithio-DL-threitol, 200 nM bovine serum albumin, 1.0 μg/ml sheared salmon sperm DNA, 250 pM E. coli GyrA, 250 pM S. aureus GyrB, 250 μM ATP, and compound in dimethylsulfoxide. Reactions can be quenched with 30 μl of ammonium molybdate/malachite green detection reagent containing 1.2 mM malachite green hydrochloride, 8.5 mM ammonium molybdate tetrahydrate, and 1 M hydrochloric acid. Plates can be read in an absorbance plate reader at 650 nm and percent inhibition values can be calculated using dimethylsulfoxide (2%)-containing reactions as 0% inhibition and EDTA-containing ([…]) reactions as 100% inhibition controls. An IC50 measurement of compound potency for each compound can be determined from reactions performed in the presence of 10 different compound concentrations.
Regarding `CCNC(=O)Nc1cc(-c2nc(C(F)(F)F)cs2)c(-c2ccc3c(=O)c(C(=O)NCCCOP(=O)(O)O)cn(CC4CC4)c3c2)cn1` [Example 15, phosphate hydrochloride], the inhibition at 1 µM stood at 76%.

In the case of `CCNC(=O)Nc1cc(-c2nc(C(F)(F)F)cs2)c(-c2ccc3c(c2)c(=O)c(C(=O)N(C)C)cn3C[C@@H]2CCCNC2)cn1` [Example 32, 6-{6-[(Ethylcarbamoyl)amino]-4-[4-(trifluoromethyl)-1,3-thiazol-2-yl]pyridin-3-yl}-N,N-dimethyl-4-oxo-1-[(3R)-piperidin-3-ylmethyl]-1,4-dihydroquinoline-3-carboxamide], the inhibition at 1 µM was determined as 104%.

Regarding `CCNC(=O)Nc1cc(-c2nc(-c3ccccc3)cs2)c(-c2cc3c(=O)c(C(=O)O)cn(CCN(C)C)c3cc2OCCN2CCOCC2)cn1` [Example 48, 1-(2-(dimethylamino)ethyl)-6-(6-(3-ethylureido)-4-(4-phenylthiazol-2-yl)pyridin-3-yl)-7-(2-morpholinoethoxy)-4-oxo-1,4-dihydroquinoline-3-carboxylic acid], the inhibition at 1 µM is 99%.

Turning to `CCNC(=O)Nc1cc(-c2nc(C(F)(F)F)cs2)c(-c2ccc3c(c2)c(=O)c(C(=O)OCCOC(C)=O)cn3C(COC)COC)cn1` [Example 41, 2-acetoxyethyl 1-(1,3-dimethoxypropan-2-yl)-6-(6-(3-ethylureido)-4-(4-(trifluoromethyl)thiazol-2-yl)pyridin-3-yl)-4-oxo-1,4-dihydroquinoline-3-carboxylate], the inhibition at 1 µM came to 107%.

As for `CCNC(=O)Nc1cc(-c2nc(-c3ccccc3)cs2)c(-c2cc3c(=O)c(C(=O)O)cn(C[C@@H]4CCCN4CC)c3cc2OCCN(CC)CC)cn1` [Example 49, (S)-7-(2-(diethylamino)ethoxy)-1-((1-ethylpyrrolidin-2-yl)methyl)-6-(6-(3-ethylureido)-4-(4-phenylthiazol-2-yl)pyridin-3-yl)-4-oxo-1,4-dihydroquinoline-3-carboxylic acid], the inhibition at 1 µM was 105%.

In the case of `CCNC(=O)Nc1cc(-c2nc(C(F)(F)F)cs2)c(-c2ccc3c(c2)c(=O)c(C(=O)NCCOP(=O)(O)O)cn3C(COC)COC)cn1` [Example 8, 2-(1-(1,3-dimethoxypropan-2-yl)-6-(6-(3-ethylureido)-4-(4-(trifluoromethyl)thiazol-2-yl)pyridin-3-yl)-4-oxo-1,4-dihydroquinoline-3-carboxamido)ethyl dihydrogen phosphate hydrochloride], the inhibition at 1 µM came out at 108%.

As to `CCNC(=O)Nc1cc(-c2nc(-c3ccccc3)cs2)c(-c2cc3c(=O)c(C(=O)O)cn(C[C@H]4CCCN4CC)c3cc2OCCN(CC)CC)cn1` [Example 45, (R)-7-(2-(diethylamino)ethoxy)-1-((1-ethylpyrrolidin-2-yl)methyl)-6-(6-(3-ethylureido)-4-(4-phenylthiazol-2-yl)pyridin-3-yl)-4-oxo-1,4-dihydroquinoline-3-carboxylic acid], the inhibition at 1 µM is 102%.

With `CCNC(=O)Nc1cc(-c2nc(C(F)(F)F)cs2)c(-c2ccc3c(c2)c(=O)c(C(=O)NCCCOP(=O)(O)O)cn3C2CC2)cn1` [Example 11, 3-(1-cyclopropyl-6-(6-(3-ethylureido)-4-(4-(trifluoromethyl)thiazol-2-yl)pyridin-3-yl)-4-oxo-1,4-dihydroquinoline-3-carboxamido)propyl dihydrogen phosphate hydrochloride], the inhibition at 1 µM was determined as 108%.

For the compound `CCNC(=O)Nc1cc(-c2nc(C(F)(F)F)cs2)c(-c2cc3c(=O)c(C(=O)O)cn(CC(C)N(C)C)c3cc2F)cn1` (stereo not drawn) [Example 51, 1-(2-(dimethylamino)propyl)-6-(6-(3-ethylureido)-4-(4-(trifluoromethyl)thiazol-2-yl)pyridin-3-yl)-7-fluoro-4-oxo-1,4-dihydroquinoline-3-carboxylic acid], the inhibition at 1 µM turned out to be 95%.

`CCNC(=O)Nc1cc(-c2nc(C(F)(F)F)cs2)c(-c2ccc3c(c2)c(=O)c(C(=O)OCOC(C)=O)cn3C(COC)COC)cn1` [Example 38, Acetoxymethyl 1-(1,3-dimethoxypropan-2-yl)-6-(6-(3-ethylureido)-4-(4-(trifluoromethyl)thiazol-2-yl)pyridin-3-yl)-4-oxo-1,4-dihydroquinoline-3-carboxylate]: the inhibition at 1 µM amounted to 105%.

For the compound `CCNC(=O)Nc1cc(-c2nc(C(F)(F)F)cs2)c(-c2ccc3c(c2)c(=O)c(C(=O)OCCOC(=O)C(C)C)cn3C(COC)COC)cn1` [Example 43, 2-(isobutyryloxy)ethyl 1-(1,3-dimethoxypropan-2-yl)-6-(6-(3-ethylureido)-4-(4-(trifluoromethyl)thiazol-2-yl)pyridin-3-yl)-4-oxo-1,4-dihydroquinoline-3-carboxylate], the inhibition at 1 µM was 103%.

Take `CCNC(=O)Nc1cc(-c2nc(C(F)(F)F)cs2)c(-c2cc3c(=O)c(C(=O)O)cn([C@H](CO)CC(C)C)c3cc2F)cn1` [Example 52, (S)-6-(6-(3-ethylureido)-4-(4-(trifluoromethyl)thiazol-2-yl)pyridin-3-yl)-7-fluoro-1-(1-hydroxy-4-methylpentan-2-yl)-4-oxo-1,4-dihydroquinoline-3-carboxylic acid]: the inhibition at 1 µM amounted to 103%.

As to `CCNC(=O)Nc1cc(-c2nc(-c3ccccc3)cs2)c(-c2cc3c(=O)c(C(=O)O)cn(C[C@@H]4CCCN4CC)c3cc2OCCN(C)C)cn1` [Example 23, 7-(2-(dimethylamino)ethoxy)-1-(((S)-1-ethylpyrrolidin-2-yl)methyl)-6-(6-(3-ethylureido)-4-(4-phenylthiazol-2-yl)pyridin-3-yl)-4-oxo-1,4-dihydroquinoline-3-carboxylic acid], the inhibition at 1 µM came to 100%.

`CCNC(=O)Nc1cc(-c2nc(C(F)(F)F)cs2)c(-c2ccc3c(c2)c(=O)c(C(=O)N(C)C)cn3CC2CN3CCN2CC3)cn1` (stereo not drawn) [Example 31, 1-(1,4-diazabicyclo[2.2.2]oct-2-ylmethyl)-6-{6-[(ethylcarbamoyl)amino]-4-[4-(trifluoromethyl)-1,3-thiazol-2-yl]pyridin-3-yl}-N,N-dimethyl-4-oxo-1,4-dihydroquinoline-3-carboxamide]: the inhibition at 1 µM was 114%.

Regarding `CCNC(=O)Nc1cc(-c2nc(C(F)(F)F)cs2)c(-c2ccc3c(c2)c(=O)c(C(=O)O)cn3[C@H](COP(=O)(O)O)C(C)(C)C)cn1` [Example 3, (S)-1-(3,3-dimethyl-1-(phosphonooxy)butan-2-yl)-6-(6-(3-ethylureido)-4-(4-(trifluoromethyl)thiazol-2-yl)pyridin-3-yl)-4-oxo-1,4-dihydroquinoline-3-carboxylic acid], the inhibition at 1 µM turned out to be 108%.

As to `CCNC(=O)Nc1cc(-c2nc(C(F)(F)F)cs2)c(-c2cc3c(=O)c(C(=O)O)cn(C4CC4)c3cc2Cl)cn1` [Example 54, 7-chloro-1-cyclopropyl-6-(6-(3-ethylureido)-4-(4-(trifluoromethyl)thiazol-2-yl)pyridin-3-yl)-4-oxo-1,4-dihydroquinoline-3-carboxylic acid], the inhibition at 1 µM worked out at 126%.

For the compound `CCNC(=O)Nc1cc(-c2nc(C(F)(F)F)cs2)c(-c2ccc3c(c2)c(=O)c(C(=O)N(C)C)cn3C[C@H]2CCCNC2)cn1` [Example 33, 6-{6-[(Ethylcarbamoyl)amino]-4-[4-(trifluoromethyl)-1,3-thiazol-2-yl]pyridin-3-yl}-N,N-dimethyl-4-oxo-1-[(3S)-piperidin-3-ylmethyl]-1,4-dihydroquinoline-3-carboxamide], the inhibition at 1 µM stood at 104%.

Take `CCNC(=O)Nc1cc(-c2nc(-c3ccccc3)cs2)c(-c2cc3c(=O)c(C(=O)O)cn(CCN(C)C)c3cc2OCCN(CC)CC)cn1` [Example 46, 7-(2-(diethylamino)ethoxy)-1-(2-(dimethylamino)ethyl)-6-(6-(3-ethylureido)-4-(4-phenylthiazol-2-yl)pyridin-3-yl)-4-oxo-1,4-dihydroquinoline-3-carboxylic acid]: the inhibition at 1 µM turned out to be 108%.

Consider `CCNC(=O)Nc1cc(-c2nc(C(F)(F)F)cs2)c(-c2ccc3c(c2)c(=O)c(C(=O)NCCOP(=O)(O)O)cn3C2CC2)cn1` [Example 9, 2-(1-cyclopropyl-6-(6-(3-ethylureido)-4-(4-(trifluoromethyl)thiazol-2-yl)pyridin-3-yl)-4-oxo-1,4-dihydroquinoline-3-carboxamido)ethyl dihydrogen phosphate hydrochloride], for which the inhibition at 1 µM worked out at 103%.

`CCNC(=O)Nc1cc(-c2nc(C(F)(F)F)cs2)c(-c2ccc3c(c2)c(=O)c(C(=O)OCCOC(=O)C(C)(C)C)cn3C(COC)COC)cn1` [Example 44, 2-(pivaloyloxy)ethyl 1-(1,3-dimethoxypropan-2-yl)-6-(6-(3-ethylureido)-4-(4-(trifluoromethyl)thiazol-2-yl)pyridin-3-yl)-4-oxo-1,4-dihydroquinoline-3-carboxylate]: the inhibition at 1 µM was found to be 98%.

As for `CCNC(=O)Nc1cc(-c2nc(C(F)(F)F)cs2)c(-c2ccc3c(c2)c(=O)c(C(=O)O)cn3[C@H]2[C@@H]3CN(C)C[C@@H]32)cn1` [Example 35, 6-{6-[(ethylcarbamoyl)amino]-4-[4-(trifluoromethyl)-1,3-thiazol-2-yl]pyridin-3-yl}-1-[(1R,5S,6s)-3-methyl-3-azabicyclo[3.1.0]hex-6-yl]-4-oxo-1,4-dihydroquinoline-3-carboxylic acid], the inhibition at 1 µM is 108%.

As a reminder, the inhibition is the change of the read-out against control, counted positive when it falls.

For the origin of these results see patent US20100317624A1 (ASTRAZENECA AB, priority 2009, published 2010).
